For this assay, the system named is HBV replication in HepG2-2.2.15 cells. Briefly: Inhibition of HBV replication dot-blot assay. The settings on record: Hepatitis B virus, 144 h, reduction in HBV DNA levels, six days. The format is cell-based. Here is the method: Compounds active in the HBV assembly assay are tested for their activity and toxicity in cellular assay. In the first anti-viral assay, the ability of compounds to inhibit HBV replication in an HBV-producing hepatoma cell line using the dot-blot method is evaluated.
(§1) Briefly, confluent monolayers of HepG2-2.2.15 cells are incubated with complete medium containing various concentrations of a test compound. Three days later, the culture medium is replaced with fresh medium containing the appropriately diluted test compound. Six days following the initial administration of the test compound, the cell culture supernatant is collected, and cell lysis is performed. The samples are applied onto Nylos membranes and DNA is immobilized to the membrane by UV cross-linking. After pre-hybridization, the HBV probe is added and the hybridization is performed overnight. The membranes are exposed to the KODAK films; antiviral activity is calculated from the reduction in HBV DNA levels (EC50). The EC50 for antiviral activity is calculated from the dose response curves of active compounds. Assay performance over time is monitored by the use of the standard positive control compounds ETV, BAY 41-4109, and HAP-1.
Selected compounds are tested for their activity and toxicity in cellular assay. In the first anti-viral assay, the ability of compounds to inhibit HBV replication in an HBV-producing hepatoma cell line using the dot-blot method is evaluated.
as §1, with “Confluent monolayers” for “Briefly, confluent monolayers”, “lysis was” for “lysis is”

Structures are written as SMILES.

In the case of `O=C(Nc1ccc(F)c(Cl)c1)c1ccnc(NS(=O)(=O)CCC2CC2)c1` [Compound 23, N-(3-Chloro-4-fluorophenyl)-2-(2-cyclopropylethylsulfonamido)isonicotinamide], the EC50 – broadly, the concentration needed to bring the measured effect to its halfway point – is less than 10 µM.

With `O=C(Nc1ccc(F)c(Cl)c1)c1ccnc(NS(=O)(=O)CCc2ccccc2)c1` [Compound 21, N-(3-Chloro-4-fluorophenyl)-2-(2-phenylethylsulfonamido)isonicotinamide], the EC50 was less than 10 µM.

`CS(=O)(=O)Nc1cc(C(=O)Nc2ccc(F)c(Cl)c2)ccn1` [Compound 35, N-(3-Chloro-4-fluorophenyl)-2-(methylsulfonamido)isonicotinamide]: the concentration for a half-maximal effect (EC50) was less than 10 µM.

As for `O=C(Nc1ccc(F)c(Cl)c1)c1ccnc(NS(=O)(=O)CC2CC2)c1` [Compound 36, N-(3-Chloro-4-fluorophenyl)-2-(cyclopropylmethylsulfonamido)isonicotinamide], the EC50 was less than 10 µM.
